Read-outs that look alike come from different tables or passages of the source.
What was measured:
SH-SY5Y cells [1] = system: SH-SY5Y cells; note: reference of the scale not given here
SH-SY5Y cells [2] = settings: human
endogenous TFEB = experiment: TFEB nuclear translocation, immunocytochemistry high-content imaging; assay type: cell-based
SH-SY5Y cells [3] = settings: human; remark: listed apart in the source
Protocol: Total cell lysis with 5 µL 5% Triton-X 100 (Sigma-Aldrich, T8787) is used as a positive control for the assay and toxicity is expressed as a percentage of luminescence under DMSO conditions.

endogenous TFE3 = experiment: TFE3 nuclear translocation, immunocytochemistry high-content imaging; assay type: cell-based
SH-SY5Y cells [4] = experiment: AK (adenylate kinase) release ToxiLight cytotoxicity assay; settings: PKIS2 primary screening; note: reference of the scale not given here
SH-SY5Y cells [5] = experiment: Chemotype enrichment analysis of PKIS2 primary screen hit categories; settings: PKIS2 primary screening, hit category
SH-SY5Y cells [6] = experiment: Nuclear count from microscopy images (cellular growth and toxicity); settings: PKIS2 primary screening; note: reference of the scale not given here
[7] = PKIS2 primary screening, DQ Red BSA intensity
[8] = PKIS2 primary screening, DQ Red BSA spot count

Row | SMILES | DQ Intensity (SH-SY5Y cells [1]) | DQ Spot (SH-SY5Y cells [1]) | Nuclear Count (SH-SY5Y cells [2]; SH-SY5Y cells, 24 h, 1 µM) | TFEB % (endogenous TFEB) [%] | AK (SH-SY5Y cells [3]; SH-SY5Y cells, 24 h, 1 µM) | TFE3 % (endogenous TFE3) [%] | further results
1 | COc1ccc(C2=C(Nc3cccc(C(=O)O)c3)C(=O)NC2=O)cc1 [UNC10225244A] | 74.93 | 82.38 | 109.36 | 15.51 | 80.02 | 6.87 | –
2 | O=C1NC(=O)C(c2ccc(Cl)cc2)=C1Nc1cccc(Cl)c1 [UNC10225464A] | 132.70 | 111.59 | 85.62 | 3.70 | 74.47 | 10.27 | –
3 | O=C(Nc1n[nH]c2nc(-c3ccccc3)ccc12)C1CC1 [SB-708999] | 102.03 | 111.17 | 127.54 | 6.34 | 67.50 | 15.72 | –
4 | COc1cccc(C2=C(Nc3cc(Cl)c(O)c(Cl)c3)C(=O)NC2=O)c1 [UNC10225267A] | 123.38 | 111.15 | 119.42 | 6.51 | 136.91 | 12.35 | –
5 | O=C(Nc1n[nH]c2cc(-c3cccs3)ccc12)C1CC1 [SB-731284] | 119.55 | 107.15 | 98.09 | 12.38 | 71.30 | 10.84 | –
6 | O=C1NC(=O)C(c2ccc(Cl)cc2)=C1Nc1ccc(O)cc1 [UNC10225090A] | 92.30 | 94.51 | 99.00 | 11.08 | 134.26 | 11.41 | –
7 | CCCC(=O)Nc1n[nH]c2ncccc12 [SB-601436] | 119.21 | 109.95 | 111.13 | 6.83 | 122.64 | 11.89 | –
8 | COc1cccc(C2=C(Nc3cccc(Cl)c3)C(=O)NC2=O)c1 [UNC10225288A] | 106.89 | 108.64 | 80.70 | 6.04 | 133.69 | 8.01 | –
9 | CN(C)CC(O)COc1ccc(Nc2nccc(-c3cnn4nc(N5CCOCC5)ccc34)n2)cc1 (centres unmarked) [UNC10225197A] | 107.33 | 110.97 | – | 3.40 | – | 12.57 | Nuclear Count (SH-SY5Y cells [2]): 103.35; AK (SH-SY5Y cells [4]): 142.32
10 | O=C(Nc1n[nH]c2cc(-c3cccc(F)c3)ccc12)C1CC1 [SB-735464] | 82.14 | 107.31 | 95.28 | 2.08 | 75.61 | 14.17 | –
11 | Cn1cnc2c(N)ncnc21 [UNC10225123A] | 105.88 | 110.82 | – | 4.18 | – | 9.16 | Nuclear Count (SH-SY5Y cells [2]): 110.43; AK (SH-SY5Y cells [3]): 74.79
12 | O=C(Nc1n[nH]c2nc(-c3ccccc3)c(Br)cc12)C1CC1 [SB-708998] | 93.68 | 102.39 | 73.65 | 9.86 | 115.51 | 9.05 | –
13 | CC(C)(CN)c1nc(-c2ccc(Cl)c(O)c2)c(-c2ccncc2)[nH]1.O=C(O)C(F)(F)F [UNC10225206B] | – | – | – | – | – | – | DQ Intensity (SH-SY5Y cells [1]; [7]): 150.27; DQ Spot (SH-SY5Y cells [1]; [8]): 119.19; Outcome (SH-SY5Y cells [5]): DQ Only; Nuclear Count (SH-SY5Y cells [2]): 109.20; AK (SH-SY5Y cells [4]): 116.08; TFEB % (endogenous TFEB; PKIS2 primary screening): 5.00%; TFE3 % (endogenous TFE3; PKIS2 primary screening): 3.59%
14 | CCCCc1nn2ncccc2c1-c1ccnc(NC2CC2)n1 [UNC10225247A] | – | – | – | – | – | – | DQ Intensity (SH-SY5Y cells [1]; PKIS2 primary screening): 77.25; DQ Spot (SH-SY5Y cells [1]; PKIS2 primary screening): 98.14; Nuclear Count (SH-SY5Y cells [2]): 77.00; AK (SH-SY5Y cells [4]): 99.47; TFEB % (endogenous TFEB; PKIS2 primary screening): 2.59%; TFE3 % (endogenous TFE3; PKIS2 primary screening): 6.63%
15 | Cc1ccc(C(=O)NC2CCCC2)cc1-c1ccc(C(=O)NCC2CC2)cc1 [UNC10225270A] | 84.15 | 81.23 | – | 16.20 | – | 10.04 | Nuclear Count (SH-SY5Y cells [2]; 24 h, 1 µM): 92.17; AK (SH-SY5Y cells [3]; 24 h, 1 µM): 80.83
16 | COc1cccc(C2=C(Nc3ccc(Cl)c(C(=O)O)c3)C(=O)NC2=O)c1 [UNC10225038A] | 120.07 | 110.06 | 91.66 | 4.97 | 67.98 | 15.59 | –
17 | O=C1NC(=O)C(c2ccccc2Cl)=C1Nc1cccc(Cl)c1 [UNC10225092A] | 81.85 | 94.92 | 114.88 | 6.93 | 96.89 | 13.82 | –
18 | O=C(Nc1n[nH]c2nc(-c3cccs3)c(Br)cc12)C1CC1 [SB-735297] | 103.59 | 106.97 | 125.04 | 7.45 | 112.72 | 10.45 | –

Row | SMILES | DQ Intensity (SH-SY5Y cells [1]) | DQ Spot (SH-SY5Y cells [1]) | Nuclear Count (SH-SY5Y cells [2]; SH-SY5Y cells, 24 h, 1 µM) | TFEB % (endogenous TFEB) [%] | AK (SH-SY5Y cells [3]; SH-SY5Y cells, 24 h, 1 µM) | TFE3 % (endogenous TFE3) [%] | further results
19 | Nc1n[nH]c2cnc(-c3ccccc3)cc12 [SB-642124] | 94.71 | 98.20 | 121.57 | 10.03 | 86.32 | 5.79 | –
20 | CSc1ccc(NC2=C(c3ccc(Cl)cc3)C(=O)NC2=O)cc1 [UNC10225216A] | 88.23 | 93.29 | 155.73 | 4.27 | 104.34 | 17.03 | –
21 | Nc1n[nH]c2nnc(-c3ccccc3)c(-c3ccccc3)c12 [UNC10225185A] | 101.09 | 91.84 | 95.91 | 8.38 | 73.45 | 12.30 | –
22 | O=C(Nc1n[nH]c2nc(-c3cccs3)c(Br)cc12)C1CCCC1 [SB-743341] | 118.79 | 104.54 | 111.90 | 21.21 | 91.49 | 12.29 | –
23 | COc1cccc(C2=C(Nc3cccc(O)c3)C(=O)NC2=O)c1 [UNC10225456A] | 100.94 | 105.72 | 97.83 | 8.57 | 101.77 | 7.19 | –
24 | Cc1ccc(-n2nc(C(C)(C)C)cc2NC(=O)Nc2ccc(OCCN3CCOCC3)c3ccccc23)cc1 [UNC10225354A] | 143.22 | 116.14 | – | 7.39 | – | 11.86 | Nuclear Count (SH-SY5Y cells [2]): 65.33; AK (SH-SY5Y cells [3]): 120.63
25 | CCN1CCN(CCCC(=O)Nc2n[nH]c3nc(-c4ccc(O)cc4)c(Br)cc23)CC1 [SB-731579] | 115.44 | 103.09 | 67.01 | 17.61 | 91.62 | 6.82 | –
26 | O=C(Nc1n[nH]c2cc(-c3ccoc3)ccc12)C1CC1 [SB-738481] | 82.31 | 113.23 | 105.01 | 6.46 | 109.29 | 12.05 | –
27 | O=C(Nc1n[nH]c2cc(-c3ccsc3)ccc12)C1CC1 [SB-732932] | 63.56 | 84.83 | 130.18 | 11.50 | 126.66 | 8.30 | –
28 | COc1ccccc1C1=C(Nc2cccc(O)c2)C(=O)NC1=O [UNC10225043A] | 136.47 | 112.45 | – | 8.14 | – | 13.36 | Nuclear Count (SH-SY5Y cells [2]; 24 h, 1 µM): 83.80; AK (SH-SY5Y cells [3]; 24 h, 1 µM): 125.63
29 | O=c1cc(N2CCOCC2)nc2n(Cc3cccc(Cl)c3Cl)ccn12 [UNC10225167A] | – | – | – | – | – | – | DQ Intensity (SH-SY5Y cells [1]; PKIS2 primary screening): 91.40; DQ Spot (SH-SY5Y cells [1]; PKIS2 primary screening): 112.20; TFEB % (endogenous TFEB; PKIS2 primary screening): 3.69%; Nuclear Count (SH-SY5Y cells [6]): 101.24; AK (SH-SY5Y cells [3]): 151.05; TFE3 % (endogenous TFE3; PKIS2 primary screening): 15.96%
30 | CC(=O)Nc1n[nH]c2ncc(-c3ccccc3)cc12 [SB-548492] | 81.01 | 101.49 | 87.30 | 4.73 | 85.75 | 13.46 | –
31 | CSc1ccc(NC2=C(c3ccccc3Cl)C(=O)NC2=O)cc1 [UNC10225346A] | 121.64 | 113.39 | 103.43 | 6.03 | 105.29 | 14.52 | –
32 | O=C(Nc1n[nH]c2nc(-c3nccs3)c(Br)cc12)C1CCCC1 [SB-742609] | 95.35 | 108.28 | 69.12 | 8.05 | 69.40 | 7.93 | –
33 | CC(C)(CN)c1nc(-c2ccc(Cl)c(O)c2)c(-c2ccncc2)[nH]1.O=C(O)C(F)(F)F [UNC10225206A] | – | – | – | – | – | – | DQ Intensity (SH-SY5Y cells [1]; [7]): 164.60; DQ Spot (SH-SY5Y cells [1]; [8]): 127.42; Outcome (SH-SY5Y cells [5]): DQ Only; Nuclear Count (SH-SY5Y cells [2]): 76.70; AK (SH-SY5Y cells [4]): 94.20; TFEB % (endogenous TFEB; PKIS2 primary screening): 8.68%; TFE3 % (endogenous TFE3; PKIS2 primary screening): 7.79%
34 | COc1cccc(-c2ccc3c(NC(=O)C4CC4)n[nH]c3n2)c1 [SB-710903] | 82.25 | 92.88 | 105.81 | 9.14 | 104.06 | 8.53 | –
35 | O=C(Nc1n[nH]c2nc(-c3nccs3)c(Br)cc12)C1CC1 [SB-742251] | 109.29 | 109.81 | 130.73 | 12.43 | 80.83 | 5.59 | –

— article PMC9851200, “Multiparameter phenotypic screening for endogenous TFEB and TFE3 translocation identifies novel chemical series modulating lysosome function” (Autophagy, 2022)
